Reference: patent US20040097534A1, “Composition for the protection and regeneration of nerve cells containing berberine derivatives” (EUGENBIO INC., priority 2001, published 2004)
Entries after “also recorded” stand apart in the source; their conditions may differ. Like-named read-outs stand apart in the source and are kept apart here.

Tests used:
[1] = system: HiB5 cells; settings: for O.D. %: control = 100
Procedure: Since HiB5 cells derived from white rat embryonic hippocampus were prepared by retroviral infection of temperature sensitive SV40 large T antigen, they divided at […], but the cell division stopped at 39° C. (body temperature of rat). […] Cell culture medium was prepared by adding a mixture of 10% FBS (fetal bovine serum), penicillin/streptomycin, glutamine and sodium pyruvate (0.11 g/L) to DMEM. On differentiating at 39° C., another cell culture medium was prepared by adding pyruvate to a serum-free medium (N2, containing DMEM/F12, insulin, transferrin, Putreseine and BSA; Botten Stein & Sato., 1979). PC12 cells and SH-SY5Y cells were cultured in DMEM supplemented with 10% FBS. In order to differentiate the cells, NGF or retinoic acid was added to a serum-free medium.
(§1) Cell injuries under condition of serum deprivation-induced stress and oxidative stress were measured by MTT assay. For MTT assay, Cells were seeded into N2 medium in an amount of 7.5×10^3 cells, and then a neurotoxin or a nerve growth factor was added thereto to differentiate the cells and then 0.1 volume of 4 mg/ml MTT was further added. The mixture was stored at 37° C. for 3-4 hours. After 100 μl of solubilization buffer was added to the mixture and then stored for 24 hours, O.D. values were measured by ELISA assay.
HiB5 cell line used in this experiment was prepared by infecting primary cultured cells of temperature sensitive SV40 large T antigen in rat embryonic hippocampus (embryonic day 16) using retroviral vectors. The HiB5 cell line was divided at the permissive temperature (32° C.), but the cell division stopped at the non-permissive temperature (body temperature of rat: 39° C.). A small number of GABAegic neurons differentiated in the rat embryonic hippocampus (embryonic day 16), and glutamatergic pyramidal cell precursors still divided, some of which penetrated into dentate gyrus regions through dentate migration pathways in embryonic day 18 to differentiate into glutamatergic granule cells (Altman J., Bayer. S. A. (1990a) Prolonged sojourn of developing pyramidal cells in the intermediate zone of the hippocampus and their settling in the stratum pyramidale. J Comp Neurol. 301, 343-64.; Altman J., Das G. D. (1965) Post-natal origin of microneurones in the rat brain, Nature. 28, 953-956.). When cells stop their cell-division and start to differentiate in vivo, apoptosis occurs.
In order to evaluate the protective effect of berberine against apoptosis and the effect of increasing cell survival, HiB5 cells were cultured under conditions for initiation of differentiation. At this time, the culture was treated with berberine at various concentrations (50 ng/ml˜6 μg/ml). The protective effect of berberine against apoptosis was measured by MTT assay. A positive control group was treated with bFGF to block apoptosis, increase cell survival and induce the differentiation into nerve cells.
Since HiB5 neuronal stem cells undergo cell death during the differentiation, the cells were considered as a negative control group. The percentage of O.D. values is determined for the groups treated with bFGF and berberine, respectively.

[2] = system: PC12 cells; experiment: MTT assay, PC12 survival under serum deprivation-induced stress; type: cell-based, rat; settings: for O.D.: 2 days; for Average (O.D. relative to RPMI): RPMI = 100%
Procedure: as §1
NGF, increasing cell survival and inducing cell differentiation, was used as a positive control. After the cells were treated with berberine (0.25˜3 μg/ml), the cells were cultured for 2 days to induce nerve regeneration (see, Table 3 and FIG. 5a).

[3] = system: PC12 cells; experiment: MTT assay, PC12 survival under dexamethasone (glucocorticoid) stress; type: cell-based, rat
Procedure: as §1
Glucocorticoids are hormones secreted from the adrenal glands, and involve in a variety of metabolic processes including glycometabolism. In particular, stress causes release of glucocorticoids to reduce cell divisions of neuronal stem cells in the brain and induce apoptosis of nerve cells. Therefore, PC12 cells were treated with dexamethasone, a glucocorticoid derivative, to examine the effect of berberine against apoptosis of nerve cells. 3 hours after treatment with berberine, dexamethasone (1) was added to a culture solution and incubated for 2 days to induce neuroregeneration (see, Table 5 and FIG. 5b).

[4] = system: SH-SY5Y cells; experiment: Neurite regeneration in SH-SY5Y cells; type: cell-based, human
Procedure: Thereafter, the culture was treated with berberine and further cultured for 2 days. The cultured cells were immunostained with nerve cell-specific labeled molecule, and then the number of cells having neurites longer than cell bodies was counted under a confocal microscope. A positive control was treated with bFGF under the same condition as described above to induce the differentiation into nerve cells. In addition, the neuroregenerative effect was examined after berberine together with bFGF was treated. The differentiation degree was measured by double-staining neurites with nerve cell-specific labeled molecule (anti-neurofilament antibody) and FITC-labeled secondary antibody (green), followed by staining cell nuclei with propidium iodide (red). In order to examine the effect of berberine on neurite regeneration, SH-SY5Y cells were used as differentiated nerve cell lines. Retinoic acid inducing neurite growth was used as a positive control.

[5] = system: white rats; experiment: Toxicity and side effects in vivo
Procedure: The dosage for berberine can be varied depending upon known factors, such as age, sex, body weight, disease severity and health condition of the recipient. The daily dosage is commonly in the range of 100 to 150 mg/60 kg of body weight in two or three installments.

[6] = N2 + dexamethasone + berberine 0.25 μg/ml
[7] = N2 + dexamethasone + berberine 1.5 μg/ml
[8] = N2 + dexamethasone + berberine 3 μg/ml

COc1ccc2cc3[n+](cc2c1OC)CCc1cc2c(cc1-3)OCO2 [Berberine, 7,8,13,13a-tetradihydro-9,10-dimethoxy-2,3-(methylenedioxy) berbinium]
O.D. % ([1]; 50 ng): 99% | O.D. % ([1]; 100 ng): 103% | O.D. % ([1]; 250 ng): 111% | O.D. % ([1]; 500 ng): 140% | O.D. % ([1]; 700 ng): 154% | O.D. % ([1]; 1 μg): 153% | O.D. % ([1]; 1.5 μg): 162% | O.D. % ([1]; 2 μg): 173% | O.D. % ([1]; 2.5 μg): 185% | O.D. % ([1]; 3 μg): 190% | O.D. % ([1]; 4 μg): 189% | O.D. % ([1]; 5 μg): 191% | O.D. % ([1]; 6 μg): 190% | cell survival rate / protective effect against apoptosis, increase over control ([1]; HiB5 under differentiation conditions, MTT): about two times | cell survival rate ([1]; berberine 250˜500 ng/ml): somewhat increased | cytotoxicity ([1]; berberine up to 6 μg/ml): no cytotoxicity | O.D. ([2]; RPMI + berberine 0.25 μg/ml): 0.203 | Average (O.D. relative to RPMI) ([2]; RPMI + berberine 0.25 μg/ml): 121% | O.D. ([2]; RPMI + berberine 1.5 μg/ml): 0.239 | Average (O.D. relative to RPMI) ([2]; RPMI + berberine 1.5 μg/ml): 142% | O.D. ([2]; RPMI + berberine 3 μg/ml): 0.262 | Average (O.D. relative to RPMI) ([2]; RPMI + berberine 3 μg/ml): 156% | cell survival rate versus control group ([2]; serum deprivation, berberine (1.5˜3 μg/ml elsewhere in the source)): 1.5 times | Average (O.D. relative to dexamethasone alone) [3, 6]: 111% | O.D. [3, 6]: 0.214 | Average (O.D. relative to dexamethasone alone) [3, 7]: 127% | O.D. [3, 7]: 0.245 | Average (O.D. relative to dexamethasone alone) [3, 8]: 132% | O.D. [3, 8]: 0.253 | cell survival rate increase ([3]; dexamethasone stress, 2 days): about 1.3 times | length of neurites ([4]; berberine): lengthened the length of neurites | total number of nerve cells, increase ([4]; berberine): increased two times; also recorded: doubled | Average (%) of differentiated cells ([4]; berberine 0.25 μg/ml): 63.34% | Number of differentiated cells ([4]; berberine 0.25 μg/ml): 26.51 | total average cell numbers ([4]; berberine 0.25 μg/ml): 39.75 | Average (%) of differentiated cells ([4]; berberine 1.5 μg/ml): 71.04% | Number of differentiated cells ([4]; berberine 1.5 μg/ml): 27.89 | total average cell numbers ([4]; berberine 1.5 μg/ml): 38.80 | Average (%) of differentiated cells ([4]; berberine 3 μg/ml): 73.95% | Number of differentiated cells ([4]; berberine 3 μg/ml): 28.64 | total average cell numbers ([4]; berberine 3 μg/ml): 38.60 | LD50 ([5]; intraperitoneally injected): 24.3 mg/kg | acute toxicity ([5]; white rats): no acute toxicity | side effects on liver functions ([5]; white rats): no side effects on liver functions
